Data set [1] can be described thus: Hepatic Stability Assay (in vitro half-life method). Also on record: dose or concentration left out as unconfirmed. In kind it is in vitro ADME. The note with it: pooled cryopreserved hepatocytes, 37° C., 1×10^6 cells/mL, 0-6 hours, LC-MS/MS, 39.5 hours is the maximum detectable half life, read-out: t½ (converted). Summed up: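 Pooled cryopreserved hepatocytes (1×10^6 cells/mL) incubated with compound at […] test concentration, 37° C.; samples at 0, 1, 3 and 6 h quantified by LC-MS/MS. Half-life from rate of compound disappearance, scaled to predicted hepatic clearance via well-stirred model.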

For data set [2], the system named is HBV AD38 viral particles in HepG2 cell line overexpressing NTCP. Put plainly: HBV DNA Quantification Assay. In kind it is cell-based. The note with it: Hepatitis B virus, HepG2, 120 h, HBV-infected HepG2-NTCP cells, 5 days incubation, HBV DNA in culture supernatant (QuantiGene 2.0); geometric mean of a minimum of four determinations. Here is the method:
HBV DNA Quantification Assay
A HepG2 cell line overexpressing the HBV virus attachment receptor sodium-taurocholate cotransporting polypeptide (NTCP) was grown to confluency in DMEM growth medium, Dulbecco's Modified Eagle Medium without sodium pyruvate (Life Technologies, Rockville, Md.) supplemented with 10% FBS (Thermo Scientific, Waltham, Md.), 1% penicillin/streptomycin (Life Technologies, Rockville, Md.) and 2 mM L-glutamine (Life Technologies, Rockville, Md.) in T175 flasks. Cells were infected with HBV AD38 viral particles (Texcell, Frederick, USA) at 4000 genome equivalents per cell. After allowing viral infection to take place for 4 days, the infected cells were harvested from the flasks by trypsinization, washed twice with OptiMEM (Life Technologies, Rockville, Md.) and re-suspended in DMEM containing 2% FBS and 1% DMSO at a density of 0.25E6 cells/ml. Infected cells were seeded on 384 well collagen coated plates (Greiner, Austria) at a density of 20,000 cells/well containing serially diluted compounds of the present disclosure or DMSO (0.5%) in a final volume of 80 μl. The assay plates were incubated for a period of 5 days and the antiviral activity of the test compounds were assayed by detecting the presence of HBV DNA in the culture supernatant using the QuantiGene™ 2.0 nucleic acid quantification kit (Affymetrix, Santa Clara, Calif.).
The culture supernatant was harvested and treated with lysis buffer containing Proteinase K (Affymetrix, Santa Clara, Calif.). The supernatant was incubated with HBV viral DNA specific probes (Affymetrix, Santa Clara, Calif.) for 30 minutes at 55° C. This was followed by addition of 0.2M NaOH for 30 minutes at room temperature to denature the DNA, followed by addition of Neutralization buffer (Affymetrix, Santa Clara, Calif.). The resulting lysed and neutralized supernatant was then added to QuantiGene™ 2.0 384 well plates coated with capture oligonucleotides and incubated overnight at 55° C. The HBV specific probe set consists of Capture Extender oligonucleotides (CE's) and blocking probes. Following the overnight incubation, the wells were incubated for one hour sequentially with a Pre-Amplifier, Amplifier and Labeled probes conjugated to alkaline phosphatase with a wash step between incubations. After the final wash step, the alkaline phosphatase substrate (Luminol APS5) was added and the resulting luminescence signal was read in an EnVision Multilabel Plate Reader (PerkinElmer, Santa Clara, Calif.). The EC50 values were calculated from the fit of the dose—response curves to a four-parameter equation. All EC50 values represent geometric mean values of a minimum of four determinations.

As to `Cc1c(C(=O)C(=O)NC2(C(=O)N3CC4(C3)CN(S(C)(=O)=O)C4)CC(F)(F)C2)c2n(c1C(=O)Nc1ccc(F)c(Cl)c1)CCC2` [Example 28, N-(3-chloro-4-fluorophenyl)-7-(2-((3,3-difluoro-1-(6-(methylsulfonyl)-2,6-diazaspiro[3.3]heptane-2-carbonyl)cyclobutyl)amino)-2-oxoacetyl)-6-methyl-2,3-dihydro-1H-pyrrolizine-5-carboxamide], the half-life in data set [1] is 11.8 h. Moreover, a half-maximal effect in data set [2] (EC50) was put at 112 nM.
The like results for `Cc1c(C(=O)C(=O)NC2(c3c[nH]nn3)CC(F)(F)C2)c2n(c1C(=O)Nc1ccc(F)c(Cl)c1)CCC2` [Example 29, N-(3-chloro-4-fluorophenyl)-7-(2-((3,3-difluoro-1-(1H-1,2,3-triazol-4-yl)cyclobutyl)amino)-2-oxoacetyl)-6-methyl-2,3-dihydro-1H-pyrrolizine-5-carboxamide] were, in that order, 16.1 h and 3.1 nM.
The like results for `Cc1c(C(=O)C(=O)NC2(c3c[nH]nn3)CC(F)(F)C2)c2n(c1C(=O)Nc1ccc(F)c(F)c1)CCC2` [Example 31, 7-(2-((3,3-difluoro-1-(1H-1,2,3-triazol-4-yl)cyclobutyl)amino)-2-oxoacetyl)-N-(3,4-difluorophenyl)-6-methyl-2,3-dihydro-1H-pyrrolizine-5-carboxamide] were, in that order, 8.6 h and 3.2 nM.
The like results for `Cc1c(C(=O)C(=O)NC2(c3c[nH]nn3)CC(F)(F)C2)c2n(c1C(=O)Nc1ccc(F)cc1)CCC2` [Example 32, 7-(2-((3,3-difluoro-1-(1H-1,2,3-triazol-4-yl)cyclobutyl)amino)-2-oxoacetyl)-N-(4-fluorophenyl)-6-methyl-2,3-dihydro-1H-pyrrolizine-5-carboxamide] were, in that order, 8.8 h and 8.5 nM.
On to `CNC(=O)C1(NC(=O)C(=O)c2c(C)c(C(=O)Nc3ccc(F)c(Cl)c3)n3c2[C@@H]2C[C@@H]2C3)CC(F)(F)C1` [Example 33, (1aS,6bR)—N-(3-chloro-4-fluorophenyl)-6-(2-((3,3-difluoro-1-(methylcarbamoyl)cyclobutyl)amino)-2-oxoacetyl)-5-methyl-1,1a,2,6b-tetrahydrocyclopropa[a]pyrrolizine-4-carboxamide], for which the half-life in data set [1] is 4.3 h. This compound also returned a concentration giving a half-maximal response (EC50) in data set [2] of 27.2 nM.
The like results for `CNC(=O)C1(NC(=O)C(=O)c2c(C)c(C(=O)Nc3ccc(F)c(Cl)c3)n3c2[C@H]2C[C@H]2C3)CC(F)(F)C1` [Example 34, (1aR,6bS)—N-(3-chloro-4-fluorophenyl)-6-(2-((3,3-difluoro-1-(methylcarbamoyl)cyclobutyl)amino)-2-oxoacetyl)-5-methyl-1,1a,2,6b-tetrahydrocyclopropa[a]pyrrolizine-4-carboxamide] were, in that order, 18.1 h and 202 nM.
The like results for `CNC(=O)C1(NC(=O)C(=O)c2c(C)c(C(=O)Nc3cc(F)c(F)c(F)c3)n3c2CCC3)CC(F)(F)C1` [Example 36, 7-(2-((3,3-difluoro-1-(methylcarbamoyl)cyclobutyl)amino)-2-oxoacetyl)-6-methyl-N-(3,4,5-trifluorophenyl)-2,3-dihydro-1H-pyrrolizine-5-carboxamide] were, in that order, 26.5 h and 24 nM.
The like results for `Cc1c(C(=O)C(=O)NC2(c3c[nH]nn3)CC(F)(F)C2)c2n(c1C(=O)Nc1ccc(F)c(C#N)c1)CCC2` [Example 37, N-(3-cyano-4-fluorophenyl)-7-(2-((3,3-difluoro-1-(1H-1,2,3-triazol-4-yl)cyclobutyl)amino)-2-oxoacetyl)-6-methyl-2,3-dihydro-1H-pyrrolizine-5-carboxamide] were, in that order, 10.9 h and 5.6 nM.
`CNC(=O)C1(NC(=O)C(=O)c2c(C)c(C(=O)Nc3cc(F)c(F)c(F)c3)n3c2C[C@H]2C[C@H]23)CC(F)(F)C1` [Example 38, (1aR,6aR)-5-(2-((3,3-difluoro-1-(methylcarbamoyl)cyclobutyl)amino)-2-oxoacetyl)-4-methyl-N-(3,4,5-trifluorophenyl)-1,1a,6,6a-tetrahydrocyclopropa[b]pyrrolizine-3-carboxamide]: the half-life in data set [1] is 13.8 h. The EC50 in data set [2] was 13 nM.
The like results for `Cc1c(C(=O)C(=O)NC2(c3c[nH]nn3)CC(F)(F)C2)c2n(c1C(=O)Nc1ccc(F)c(Cl)c1)[C@@H]1C[C@@H]1C2` [Example 39, (1aR,6aR)—N-(3-chloro-4-fluorophenyl)-5-(2-((3,3-difluoro-1-(1H-1,2,3-triazol-4-yl)cyclobutyl)amino)-2-oxoacetyl)-4-methyl-1,1a,6,6a-tetrahydrocyclopropa[b]pyrrolizine-3-carboxamide] were, in that order, 4.2 h and 2.1 nM.
The like results for `Cc1c(C(=O)C(=O)NC2(c3c[nH]nn3)CC(F)(F)C2)c2n(c1C(=O)Nc1cc(F)c(F)c(F)c1)[C@@H]1C[C@@H]1C2` [Example 40, (1aR,6aR)-5-(2-((3,3-difluoro-1-(1H-1,2,3-triazol-4-yl)cyclobutyl)amino)-2-oxoacetyl)-4-methyl-N-(3,4,5-trifluorophenyl)-1,1a,6,6a-tetrahydrocyclopropa[b]pyrrolizine-3-carboxamide] were, in that order, 5.2 h and 1.9 nM.
The like results for `Cc1c(C(=O)C(=O)NC2(c3c[nH]nn3)CC(F)(F)C2)c2n(c1C(=O)Nc1ccc(F)c(C#N)c1)[C@@H]1C[C@@H]1C2` [Example 41, (1aR,6aR)—N-(3-cyano-4-fluorophenyl)-5-(2-((3,3-difluoro-1-(1H-1,2,3-triazol-4-yl)cyclobutyl)amino)-2-oxoacetyl)-4-methyl-1,1a,6,6a-tetrahydrocyclopropa[b]pyrrolizine-3-carboxamide] were, in that order, 4.9 h and 7.5 nM.
With `Cc1c(C(=O)C(=O)NC2(c3c[nH]nn3)CC(F)(F)C2)c2n(c1C(=O)Nc1ccc(F)c(F)c1)[C@@H]1C[C@@H]1C2` [Example 42, (1aR,6aR)-5-(2-((3,3-difluoro-1-(1H-1,2,3-triazol-4-yl)cyclobutyl)amino)-2-oxoacetyl)-N-(3,4-difluorophenyl)-4-methyl-1,1a,6,6a-tetrahydrocyclopropa[b]pyrrolizine-3-carboxamide], the half-life in data set [1] was 3.5 h. Besides, the EC50 in data set [2] came to 2.1 nM.
The like results for `Cc1c(C(=O)C(=O)NC2(c3c[nH]nn3)CC2)c2n(c1C(=O)Nc1ccc(F)c(Cl)c1)C[C@H](F)C2` [Example 45, (R)-7-(2-((1-(1H-1,2,3-triazol-4-yl)cyclopropyl)amino)-2-oxoacetyl)-N-(3-chloro-4-fluorophenyl)-2-fluoro-6-methyl-2,3-dihydro-1H-pyrrolizine-5-carboxamide] were, in that order, 13.3 h and 9.1 nM.
The like results for `Cc1c(C(=O)C(=O)NC2(c3c[nH]nn3)CC2)c2n(c1C(=O)Nc1ccc(F)c(Cl)c1)C[C@@H](F)C2` [Example 46, (S)-7-(2-((1-(1H-1,2,3-triazol-4-yl)cyclopropyl)amino)-2-oxoacetyl)-N-(3-chloro-4-fluorophenyl)-2-fluoro-6-methyl-2,3-dihydro-1H-pyrrolizine-5-carboxamide] were, in that order, 16 h and 264 nM.
